Laboratory results as given in US20090156501A1, “IDENTIFICATION OF LIGANDS BY SELECTIVE AMPLIFICATION OF CELLS TRANSFECTED WITH RECEPTORS” (ACADIA PHARMACEUTICALS, INC., priority 1999, published 2009).
Where two headings read alike, the source gives them in different places.

Tests used:
Format in all cases: cell-based
m2 muscarinic receptor = target: T1, m2 muscarinic receptor (Homo sapiens, UniProt P08172); assay: Single Receptor Format amplification assay, β-galactosidase marker, NIH 3T3 cells transfected with m2 and Gq-i5
T1 construct: expressed in transfected cells; host or cells: NIH 3T3
T1 sequence (P08172 1-466): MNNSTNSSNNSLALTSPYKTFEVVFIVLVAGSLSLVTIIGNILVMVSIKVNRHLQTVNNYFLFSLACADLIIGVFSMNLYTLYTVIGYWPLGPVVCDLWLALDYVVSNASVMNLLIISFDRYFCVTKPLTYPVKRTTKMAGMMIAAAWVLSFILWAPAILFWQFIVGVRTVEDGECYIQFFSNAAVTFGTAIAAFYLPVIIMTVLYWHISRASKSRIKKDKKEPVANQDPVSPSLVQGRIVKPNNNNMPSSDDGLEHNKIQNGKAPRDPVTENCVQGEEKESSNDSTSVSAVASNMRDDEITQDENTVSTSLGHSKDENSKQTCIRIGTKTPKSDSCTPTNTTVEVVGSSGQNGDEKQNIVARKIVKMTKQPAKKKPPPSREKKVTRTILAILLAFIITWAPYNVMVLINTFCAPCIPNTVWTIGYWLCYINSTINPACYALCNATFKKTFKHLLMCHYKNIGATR

m1 muscarinic receptor = target: T2, m1 muscarinic receptor (Homo sapiens, UniProt P11229); assay: Single Receptor Format amplification assay, β-galactosidase marker, NIH 3T3 cells transfected with m1
T2 construct: expressed in transfected cells; host or cells: NIH 3T3
T2 sequence (P11229 1-460): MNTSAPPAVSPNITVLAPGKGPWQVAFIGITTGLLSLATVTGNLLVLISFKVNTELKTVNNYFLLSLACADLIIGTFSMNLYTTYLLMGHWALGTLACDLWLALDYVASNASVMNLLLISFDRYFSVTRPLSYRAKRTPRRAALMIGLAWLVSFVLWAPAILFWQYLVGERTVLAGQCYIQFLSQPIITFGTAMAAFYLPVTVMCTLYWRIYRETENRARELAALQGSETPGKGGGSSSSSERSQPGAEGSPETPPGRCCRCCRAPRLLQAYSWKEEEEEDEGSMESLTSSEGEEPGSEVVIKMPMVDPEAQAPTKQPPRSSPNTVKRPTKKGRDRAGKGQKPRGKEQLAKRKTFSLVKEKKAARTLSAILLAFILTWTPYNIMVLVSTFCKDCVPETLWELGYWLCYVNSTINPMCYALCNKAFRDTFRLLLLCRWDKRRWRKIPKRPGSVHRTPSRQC

m3 muscarinic receptor = target: T3, m3 muscarinic receptor (Homo sapiens, UniProt P20309); assay: Single Receptor Format amplification assay, β-galactosidase marker, NIH 3T3 cells transfected with m3; conditions: for EC50: β-gal amplification, mean ±SE of 2-4 experiments, read-out: Muscarinic Agonists EC50 [μM], m3
T3 construct: expressed in transfected cells; host or cells: NIH 3T3

m4 muscarinic receptor = target: T4, m4 muscarinic receptor (Homo sapiens, UniProt P08173); assay: Single Receptor Format amplification assay, β-galactosidase marker, NIH 3T3 cells transfected with m4 and chimeric G-protein; conditions: for EC50: cotransfected with Gqi5, mean ±SE of 2-4 experiments, read-out: Muscarinic Agonists EC50 [μM], m4
T4 construct: expressed in transfected cells; host or cells: NIH 3T3
T4 sequence (P08173 1-479): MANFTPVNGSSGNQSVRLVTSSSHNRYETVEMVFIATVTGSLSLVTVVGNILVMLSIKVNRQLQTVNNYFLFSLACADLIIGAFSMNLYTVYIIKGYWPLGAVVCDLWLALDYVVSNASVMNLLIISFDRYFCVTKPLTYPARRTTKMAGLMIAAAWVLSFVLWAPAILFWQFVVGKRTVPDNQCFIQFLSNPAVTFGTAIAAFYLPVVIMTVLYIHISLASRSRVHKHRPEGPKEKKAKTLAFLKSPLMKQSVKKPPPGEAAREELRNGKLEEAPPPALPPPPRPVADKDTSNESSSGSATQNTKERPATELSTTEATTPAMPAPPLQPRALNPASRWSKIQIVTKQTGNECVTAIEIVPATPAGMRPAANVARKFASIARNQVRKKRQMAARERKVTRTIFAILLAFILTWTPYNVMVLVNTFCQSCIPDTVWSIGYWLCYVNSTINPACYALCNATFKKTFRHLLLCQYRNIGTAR

m5 muscarinic receptor = target: T5, m5 muscarinic receptor (Homo sapiens, UniProt P08912); assay: Single Receptor Format amplification assay, β-galactosidase marker, NIH 3T3 cells transfected with m5; conditions: for Muscarinic Agonists (% Max), m5: maximum response as % of carbachol response (carbachol 5 μM)
T5 construct: expressed in transfected cells; host or cells: NIH 3T3
T5 sequence (P08912 1-532): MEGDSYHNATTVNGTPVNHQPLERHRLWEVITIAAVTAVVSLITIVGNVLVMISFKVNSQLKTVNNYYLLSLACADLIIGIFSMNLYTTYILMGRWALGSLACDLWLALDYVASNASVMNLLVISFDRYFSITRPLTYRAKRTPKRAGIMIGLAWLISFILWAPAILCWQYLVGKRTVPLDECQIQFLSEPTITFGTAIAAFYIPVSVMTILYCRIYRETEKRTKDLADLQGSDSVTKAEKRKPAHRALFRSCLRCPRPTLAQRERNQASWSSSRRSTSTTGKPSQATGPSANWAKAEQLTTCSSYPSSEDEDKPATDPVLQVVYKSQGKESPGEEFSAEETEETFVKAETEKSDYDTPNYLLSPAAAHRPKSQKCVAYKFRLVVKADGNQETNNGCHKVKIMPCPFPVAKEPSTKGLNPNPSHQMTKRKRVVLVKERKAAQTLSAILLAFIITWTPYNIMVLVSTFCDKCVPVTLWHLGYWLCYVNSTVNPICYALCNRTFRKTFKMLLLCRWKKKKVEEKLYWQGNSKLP

EP3 prostanoid receptor = target: T6, EP3 prostanoid receptor (Homo sapiens, UniProt P43115); assay: Single Receptor Format amplification assay, prostanoid EP3; conditions: 7-9 doses in duplicate; read-out: Ligand EC50 nM, EP3
T6 construct: expressed in transfected cells; host or cells: NIH 3T3
T6 sequence (P43115 1-390): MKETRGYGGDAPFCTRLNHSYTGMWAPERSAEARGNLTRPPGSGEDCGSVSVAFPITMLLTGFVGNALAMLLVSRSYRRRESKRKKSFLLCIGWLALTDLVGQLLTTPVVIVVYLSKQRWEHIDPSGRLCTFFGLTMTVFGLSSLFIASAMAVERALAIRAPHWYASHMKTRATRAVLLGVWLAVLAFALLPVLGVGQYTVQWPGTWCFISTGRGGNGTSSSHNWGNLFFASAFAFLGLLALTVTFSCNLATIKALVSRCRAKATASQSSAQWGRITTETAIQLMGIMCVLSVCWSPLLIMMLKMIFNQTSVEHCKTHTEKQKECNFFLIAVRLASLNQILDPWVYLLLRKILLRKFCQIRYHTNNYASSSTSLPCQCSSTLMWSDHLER
Text: (§1) Receptors belonging to several functional categories have successfully been assayed using the general protocol for the Single Receptor Format described above. […] A diversity of signal transduction classes are also illustrated: G-protein coupled receptors, tyrosine kinase linked receptors, G-proteins and oncogenes. In a few of these cases, focus assays have been used to assay ligand interaction with the illustrated receptors.

trk C receptor = target: T7, trk C receptor (Homo sapiens, UniProt Q16288); assay: Single Receptor Format amplification assay, trk C
T7 construct: expressed in transfected cells; host or cells: NIH 3T3
Text: Also illustrated is the dose-response relationships of the related neutrotrophic factor NT3.
as §1

FP prostanoid receptor = target: T8, FP prostanoid receptor (Homo sapiens, UniProt P43088); assay: Single Receptor Format amplification assay, prostanoid FP; conditions: 7-9 doses in duplicate; read-out: Ligand EC50 nM, FP
T8 construct: expressed in transfected cells; host or cells: NIH 3T3
Text: as §1

trk A receptor = target: T9, trk A receptor (Homo sapiens, UniProt P04629); assay: Single Receptor Format amplification assay, trk A; conditions: 7-9 doses in duplicate
T9 construct: expressed in transfected cells; host or cells: NIH 3T3

[1] = maximum response as % of carbachol response (carbachol 10 μM), Gqi5

T3 sequence (P20309 whole entry): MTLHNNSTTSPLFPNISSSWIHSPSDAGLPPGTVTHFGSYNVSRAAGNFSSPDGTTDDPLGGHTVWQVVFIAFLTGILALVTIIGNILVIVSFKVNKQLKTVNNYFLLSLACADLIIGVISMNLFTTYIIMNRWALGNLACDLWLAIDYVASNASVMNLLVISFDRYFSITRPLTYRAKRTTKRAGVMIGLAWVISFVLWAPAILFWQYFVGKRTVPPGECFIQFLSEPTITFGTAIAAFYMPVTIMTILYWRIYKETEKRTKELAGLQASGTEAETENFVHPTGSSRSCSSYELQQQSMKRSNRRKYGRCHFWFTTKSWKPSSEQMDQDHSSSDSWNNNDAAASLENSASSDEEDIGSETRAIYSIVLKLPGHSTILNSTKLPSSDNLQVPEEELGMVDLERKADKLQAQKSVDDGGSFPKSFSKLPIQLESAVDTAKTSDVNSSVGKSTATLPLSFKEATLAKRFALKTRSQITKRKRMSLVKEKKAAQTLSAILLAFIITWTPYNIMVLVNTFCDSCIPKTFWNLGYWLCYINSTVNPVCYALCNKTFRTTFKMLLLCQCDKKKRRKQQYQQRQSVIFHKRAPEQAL
T9 sequence (P04629 33-790 isoform P04629-2 limits assumed): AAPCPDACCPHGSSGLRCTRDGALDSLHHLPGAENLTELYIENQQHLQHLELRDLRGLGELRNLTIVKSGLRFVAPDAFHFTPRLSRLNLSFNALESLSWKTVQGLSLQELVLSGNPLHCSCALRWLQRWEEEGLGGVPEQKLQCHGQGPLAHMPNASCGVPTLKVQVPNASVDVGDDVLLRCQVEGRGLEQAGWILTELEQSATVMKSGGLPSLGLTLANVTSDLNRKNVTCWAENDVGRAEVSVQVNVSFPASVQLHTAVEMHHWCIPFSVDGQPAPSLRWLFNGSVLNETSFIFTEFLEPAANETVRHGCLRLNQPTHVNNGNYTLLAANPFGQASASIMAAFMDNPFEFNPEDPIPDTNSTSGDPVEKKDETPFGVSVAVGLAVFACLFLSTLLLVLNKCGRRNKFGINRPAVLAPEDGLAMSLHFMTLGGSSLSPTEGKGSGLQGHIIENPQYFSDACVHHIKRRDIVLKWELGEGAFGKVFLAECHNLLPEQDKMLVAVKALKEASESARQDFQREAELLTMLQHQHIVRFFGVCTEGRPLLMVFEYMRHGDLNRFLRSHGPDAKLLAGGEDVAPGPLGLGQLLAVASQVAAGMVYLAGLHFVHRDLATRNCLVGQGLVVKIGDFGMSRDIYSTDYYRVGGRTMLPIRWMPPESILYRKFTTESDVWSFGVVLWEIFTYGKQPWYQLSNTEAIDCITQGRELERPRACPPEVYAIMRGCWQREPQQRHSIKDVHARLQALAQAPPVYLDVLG
T8 sequence (P43088 whole entry): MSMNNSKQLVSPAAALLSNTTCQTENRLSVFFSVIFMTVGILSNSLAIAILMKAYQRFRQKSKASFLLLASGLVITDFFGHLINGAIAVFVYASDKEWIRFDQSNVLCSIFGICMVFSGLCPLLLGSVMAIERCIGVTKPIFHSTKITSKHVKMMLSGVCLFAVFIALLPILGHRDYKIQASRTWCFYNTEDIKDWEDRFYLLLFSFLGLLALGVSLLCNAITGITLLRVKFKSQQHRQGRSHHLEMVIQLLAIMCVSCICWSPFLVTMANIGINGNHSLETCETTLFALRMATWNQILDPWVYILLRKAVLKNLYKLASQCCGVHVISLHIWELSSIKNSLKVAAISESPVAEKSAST

## C[C@@H]1O[C@H](C[N+](C)(C)C)C[C@H]1O [muscarine]
m2 muscarinic receptor
  Muscarinic Agonists (% Max), m2: (76 ± 1) %
m1 muscarinic receptor
  Muscarinic Agonists (% Max), m1: (84 ± 4) %
m3 muscarinic receptor
  Muscarinic Agonists (% Max), m3: (84 ± 6) %
  EC50: 0.56 ± 0.25 µM
m4 muscarinic receptor
  Muscarinic Agonists (% Max), m4: (69 ± 2) %
  EC50: 0.32 ± 0.15 µM
m5 muscarinic receptor
  EC50: 0.39 ± 0.18 µM
  Muscarinic Agonists (% Max), m5: (86 ± 0) %

## O=C(O)CCCCCC[C@H]1C(=O)CC[C@@H]1/C=C/[C@@H](O)COc1ccccc1 [MB28767]
EP3 prostanoid receptor
  EC50: 270 ± 190 nM

## C[N+](C)(C)CC#CCOC(=O)Nc1cccc(Cl)c1.[Cl-] [McN A-434]
m2 muscarinic receptor; cotransfected with Gqi5, mean ±SE of 2-4 experiments, read-out: Muscarinic Agonists EC50 [μM], m2
  EC50: 1.5 ± 0.6 µM
m2 muscarinic receptor; [1]
  Muscarinic Agonists (% Max), m2: (108 ± 7) %
m1 muscarinic receptor; maximum response as % of carbachol response (carbachol 200 μM)
  Muscarinic Agonists (% Max), m1: (43 ± 2) %
m1 muscarinic receptor; β-gal amplification, mean ±SE of 2-4 experiments, read-out: Muscarinic Agonists EC50 [μM], m1
  EC50: 1.1 ± 0.2 µM
m3 muscarinic receptor; maximum response as % of carbachol response (carbachol 100 μM)
  Muscarinic Agonists (% Max), m3: (38 ± 2) %
m3 muscarinic receptor
  EC50: 2.2 µM
m4 muscarinic receptor
  EC50: 0.12 ± 0.02 µM
m4 muscarinic receptor; [1]
  Muscarinic Agonists (% Max), m4: (84 ± 3) %
m5 muscarinic receptor
  Muscarinic Agonists (% Max), m5: (57 ± 4) %
m5 muscarinic receptor; β-gal amplification, mean ±SE of 2-4 experiments, read-out: Muscarinic Agonists EC50 [μM], m5
  EC50: 1 ± 0.3 µM

## NGF: Nerve growth factor (NGF) is an agonist for the trk A receptor
Trk C receptor; data not shown
  amplification response in cells transfected with trk C: not able to induce amplification responses

## O=C(O)CCC/C=C\C[C@@H]1[C@@H](/C=C/[C@@H](O)COc2cccc(C(F)(F)F)c2)[C@H](O)C[C@@H]1O (racemic) [Fluprostenol]
FP prostanoid receptor
  EC50: 2 ± 1 nM

## O=C1CCCN1CC#CCN1CCCC1 [oxotremorine]
m2 muscarinic receptor
  Muscarinic Agonists (% Max), m2: (100 ± 5) %
m1 muscarinic receptor
  Muscarinic Agonists (% Max), m1: (75 ± 10) %
m3 muscarinic receptor
  Muscarinic Agonists (% Max), m3: (66 ± 5) %
m4 muscarinic receptor
  Muscarinic Agonists (% Max), m4: (102 ± 3) %
m5 muscarinic receptor
  Muscarinic Agonists (% Max), m5: (74 ± 2) %

## C[N+](C)(C)CCOC(N)=O [carbachol]
m2 muscarinic receptor; [1]
  Muscarinic Agonists (% Max), m2: (100) %
m4 muscarinic receptor; [1]
  Muscarinic Agonists (% Max), m4: (100) %
m5 muscarinic receptor
  Muscarinic Agonists (% Max), m5: (100) %

## NT3: related neutrotrophic factor NT3
Trk C receptor; 7-9 doses in duplicate
  Ligand EC50, trk C: 0.0024 ± 0.0011 µg/mL
Trk A receptor
  Ligand EC50, trk A: >1 µg/mL
